# According to PubChem BioAssay (NCI):
#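 The compound was tested at five concentrations on cells cultured in 96-well plates, with a 48-hour exposure period. TGI is the concentration that stops growth completely.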
# Experiments:
# Assay in all cases: inhibition of tumour cell growth, NCI panel, 48 h
# NCI-H460 lung = test system: NCI-H460 lung
# HCC-2998 colon = test system: HCC-2998 colon
# OVCAR-8 ovarian = test system: OVCAR-8 ovarian
# MCF7 breast = test system: MCF7 breast
# K-562 leukemia = test system: K-562 leukemia
# SNB-19 CNS = test system: SNB-19 CNS
# HCT-116 colon = test system: HCT-116 colon
# KM12 colon = test system: KM12 colon
# HOP-92 NSCLC = test system: HOP-92 NSCLC
# HT29 colon = test system: HT29 colon
# SK-MEL-28 melanoma = test system: SK-MEL-28 melanoma
# ACHN renal = test system: ACHN renal
# HCT-15 colon = test system: HCT-15 colon
# BT-549 breast = test system: BT-549 breast
# HS 578T breast = test system: HS 578T breast
# NCI-H226 lung = test system: NCI-H226 lung
# NCI-H522 lung = test system: NCI-H522 lung
# U251 CNS = test system: U251 CNS
# LOX IMVI melanoma = test system: LOX IMVI melanoma
# TK-10 renal = test system: TK-10 renal
# SK-MEL-2 melanoma = test system: SK-MEL-2 melanoma
# SK-OV-3 ovarian = test system: SK-OV-3 ovarian
# A498 renal = test system: A498 renal
# 786-0 renal = test system: 786-0 renal
# NCI/ADR-RES ovarian = test system: NCI/ADR-RES ovarian
# DU-145 prostate = test system: DU-145 prostate
# CAKI-1 renal = test system: CAKI-1 renal
# COLO 205 colon = test system: COLO 205 colon
# SK-MEL-5 melanoma = test system: SK-MEL-5 melanoma
# SW-620 colon = test system: SW-620 colon
# MDA-N = test system: MDA-N
# PC-3 prostate = test system: PC-3 prostate
# SF-539 CNS = test system: SF-539 CNS
# MDA-MB-435 = test system: MDA-MB-435
# UACC-257 melanoma = test system: UACC-257 melanoma
# RXF 393 renal = test system: RXF 393 renal
# EKVX NSCLC = test system: EKVX NSCLC
# SR leukemia = test system: SR leukemia
# T-47D breast = test system: T-47D breast
# SF-268 CNS = test system: SF-268 CNS
# OVCAR-4 ovarian = test system: OVCAR-4 ovarian
# IGROV1 ovarian = test system: IGROV1 ovarian
# OVCAR-3 ovarian = test system: OVCAR-3 ovarian
# MDA-MB-231 breast = test system: MDA-MB-231 breast
# MOLT-4 leukemia = test system: MOLT-4 leukemia
# HL-60(TB) leukemia = test system: HL-60(TB) leukemia
# UO-31 renal = test system: UO-31 renal
# HOP-62 NSCLC = test system: HOP-62 NSCLC
# CCRF-CEM leukemia = test system: CCRF-CEM leukemia
# M14 melanoma = test system: M14 melanoma
# NCI-H23 lung = test system: NCI-H23 lung
# SNB-75 CNS = test system: SNB-75 CNS
# MALME-3M melanoma = test system: MALME-3M melanoma
# OVCAR-5 ovarian = test system: OVCAR-5 ovarian
# UACC-62 melanoma = test system: UACC-62 melanoma
# RPMI-8226 leukemia = test system: RPMI-8226 leukemia
# SN12C renal = test system: SN12C renal
# A549 NSCLC = test system: A549 NSCLC
# SF-295 CNS = test system: SF-295 CNS
compound,measurement,setting,value
NC(Cc1ccc(N(CCCl)CCCl)cc1)C(=O)NC(CCC(=O)O)C(=O)O (centres undefined),TGI,NCI-H460 lung,> 100 µM
same,TGI,HCC-2998 colon,> 100 µM
same,TGI,OVCAR-8 ovarian,> 100 µM
same,TGI,MCF7 breast,> 100 µM
same,TGI,K-562 leukemia,> 100 µM
same,TGI,SNB-19 CNS,> 100 µM
same,TGI,HCT-116 colon,> 100 µM
same,TGI,KM12 colon,> 100 µM
same,TGI,HOP-92 NSCLC,> 100 µM
same,TGI,HT29 colon,> 100 µM
same,TGI,SK-MEL-28 melanoma,> 100 µM
same,TGI,ACHN renal,> 100 µM
same,TGI,HCT-15 colon,> 100 µM
same,TGI,BT-549 breast,> 100 µM
same,TGI,HS 578T breast,> 100 µM
same,TGI,NCI-H226 lung,> 100 µM
same,TGI,NCI-H522 lung,> 100 µM
same,TGI,U251 CNS,> 100 µM
same,TGI,LOX IMVI melanoma,> 100 µM
same,TGI,TK-10 renal,> 100 µM
same,TGI,SK-MEL-2 melanoma,> 100 µM
same,TGI,SK-OV-3 ovarian,> 100 µM
same,TGI,A498 renal,> 100 µM
same,TGI,786-0 renal,> 100 µM
same,TGI,NCI/ADR-RES ovarian,> 100 µM
same,TGI,DU-145 prostate,> 100 µM
same,TGI,CAKI-1 renal,> 100 µM
same,TGI,COLO 205 colon,> 100 µM
same,TGI,SK-MEL-5 melanoma,> 100 µM
same,TGI,SW-620 colon,> 100 µM
same,TGI,MDA-N,> 100 µM
same,TGI,PC-3 prostate,> 100 µM
same,TGI,SF-539 CNS,> 100 µM
same,TGI,MDA-MB-435,> 100 µM
same,TGI,UACC-257 melanoma,> 100 µM
same,TGI,RXF 393 renal,> 100 µM
same,TGI,EKVX NSCLC,> 100 µM
same,TGI,SR leukemia,> 100 µM
same,TGI,T-47D breast,> 100 µM
same,TGI,SF-268 CNS,> 100 µM
same,TGI,OVCAR-4 ovarian,> 100 µM
same,TGI,IGROV1 ovarian,> 100 µM
same,TGI,OVCAR-3 ovarian,> 100 µM
same,TGI,MDA-MB-231 breast,> 100 µM
same,TGI,MOLT-4 leukemia,> 100 µM
same,TGI,HL-60(TB) leukemia,> 100 µM
same,TGI,UO-31 renal,> 100 µM
same,TGI,HOP-62 NSCLC,> 100 µM
same,TGI,CCRF-CEM leukemia,> 100 µM
same,TGI,M14 melanoma,> 100 µM
same,TGI,NCI-H23 lung,> 100 µM
same,TGI,SNB-75 CNS,> 100 µM
same,TGI,MALME-3M melanoma,> 100 µM
same,TGI,OVCAR-5 ovarian,> 100 µM
same,TGI,UACC-62 melanoma,> 100 µM
same,TGI,RPMI-8226 leukemia,> 100 µM
same,TGI,SN12C renal,> 100 µM
same,TGI,A549 NSCLC,> 100 µM
same,TGI,SF-295 CNS,> 100 µM
Cn1cnc([N+](=O)[O-])c1Sc1nc(N)nc2c1ncn2C1CC(O)C(CO)O1 (centres undefined),TGI,NCI-H460 lung,> 40 µM
same,TGI,HCC-2998 colon,> 100 µM
same,TGI,OVCAR-8 ovarian,> 100 µM
same,TGI,MCF7 breast,> 54.2 µM
same,TGI,K-562 leukemia,> 100 µM
same,TGI,SNB-19 CNS,> 100 µM
same,TGI,HCT-116 colon,> 100 µM
same,TGI,KM12 colon,12.1 µM
same,TGI,HOP-92 NSCLC,> 100 µM
same,TGI,HT29 colon,> 100 µM
same,TGI,SK-MEL-28 melanoma,> 100 µM
same,TGI,ACHN renal,> 92.8 µM
same,TGI,HCT-15 colon,> 100 µM
same,TGI,BT-549 breast,> 100 µM
same,TGI,HS 578T breast,> 100 µM
same,TGI,NCI-H226 lung,98.2 µM
same,TGI,NCI-H522 lung,14.4 µM
same,TGI,U251 CNS,> 100 µM
same,TGI,LOX IMVI melanoma,> 100 µM
same,TGI,TK-10 renal,> 100 µM
same,TGI,SK-MEL-2 melanoma,25.7 µM
same,TGI,SK-OV-3 ovarian,> 79.1 µM
same,TGI,A498 renal,71.2 µM
same,TGI,786-0 renal,> 100 µM
same,TGI,NCI/ADR-RES ovarian,> 100 µM
same,TGI,DU-145 prostate,> 50.8 µM
same,TGI,CAKI-1 renal,> 100 µM
same,TGI,COLO 205 colon,> 34.3 µM
same,TGI,SK-MEL-5 melanoma,22.9 µM
same,TGI,SW-620 colon,> 100 µM
same,TGI,MDA-N,> 100 µM
same,TGI,PC-3 prostate,> 100 µM
same,TGI,SF-539 CNS,> 100 µM
same,TGI,MDA-MB-435,> 58.8 µM
same,TGI,UACC-257 melanoma,> 100 µM
same,TGI,RXF 393 renal,> 100 µM
same,TGI,EKVX NSCLC,> 100 µM
same,TGI,SR leukemia,18.7 µM
same,TGI,T-47D breast,> 63.9 µM
same,TGI,SF-268 CNS,> 100 µM
same,TGI,OVCAR-4 ovarian,> 83.1 µM
same,TGI,IGROV1 ovarian,> 100 µM
same,TGI,OVCAR-3 ovarian,> 36.4 µM
same,TGI,MDA-MB-231 breast,> 100 µM
same,TGI,MOLT-4 leukemia,16.4 µM
same,TGI,HL-60(TB) leukemia,> 47.1 µM
same,TGI,UO-31 renal,44.9 µM
same,TGI,HOP-62 NSCLC,> 100 µM
same,TGI,CCRF-CEM leukemia,> 100 µM
same,TGI,M14 melanoma,> 58.6 µM
same,TGI,NCI-H23 lung,> 55 µM
same,TGI,SNB-75 CNS,37.7 µM
same,TGI,MALME-3M melanoma,> 100 µM
same,TGI,OVCAR-5 ovarian,> 100 µM
same,TGI,UACC-62 melanoma,> 20.8 µM
same,TGI,RPMI-8226 leukemia,36.2 µM
same,TGI,SN12C renal,> 100 µM
same,TGI,A549 NSCLC,> 100 µM
same,TGI,SF-295 CNS,> 100 µM
COC(=O)C1(C#N)C(C)(C)N=C(c2ccccc2)C12CCCCC2 (centres undefined),TGI,NCI-H460 lung,> 100 µM
same,TGI,HCC-2998 colon,> 100 µM
same,TGI,OVCAR-8 ovarian,> 100 µM
same,TGI,MCF7 breast,> 100 µM
same,TGI,K-562 leukemia,> 100 µM
same,TGI,SNB-19 CNS,> 100 µM
same,TGI,HCT-116 colon,> 100 µM
same,TGI,KM12 colon,> 100 µM
same,TGI,HOP-92 NSCLC,> 100 µM
same,TGI,HT29 colon,> 100 µM
same,TGI,SK-MEL-28 melanoma,> 100 µM
same,TGI,HCT-15 colon,> 100 µM
same,TGI,BT-549 breast,> 100 µM
same,TGI,HS 578T breast,> 100 µM
same,TGI,NCI-H522 lung,> 100 µM
same,TGI,U251 CNS,> 100 µM
same,TGI,LOX IMVI melanoma,> 100 µM
same,TGI,TK-10 renal,> 100 µM
same,TGI,SK-MEL-2 melanoma,> 100 µM
same,TGI,SK-OV-3 ovarian,> 100 µM
same,TGI,A498 renal,> 100 µM
same,TGI,786-0 renal,> 100 µM
same,TGI,NCI/ADR-RES ovarian,> 100 µM
same,TGI,DU-145 prostate,> 100 µM
same,TGI,CAKI-1 renal,> 100 µM
same,TGI,COLO 205 colon,> 100 µM
same,TGI,SK-MEL-5 melanoma,> 100 µM
same,TGI,SW-620 colon,> 100 µM
same,TGI,MDA-N,> 100 µM
same,TGI,PC-3 prostate,> 100 µM
same,TGI,SF-539 CNS,> 100 µM
same,TGI,MDA-MB-435,> 100 µM
same,TGI,UACC-257 melanoma,> 100 µM
same,TGI,RXF 393 renal,> 100 µM
same,TGI,EKVX NSCLC,> 100 µM
same,TGI,SR leukemia,> 100 µM
same,TGI,T-47D breast,> 100 µM
same,TGI,SF-268 CNS,> 100 µM
same,TGI,OVCAR-4 ovarian,> 100 µM
same,TGI,IGROV1 ovarian,> 100 µM
same,TGI,OVCAR-3 ovarian,> 100 µM
same,TGI,MDA-MB-231 breast,> 100 µM
same,TGI,MOLT-4 leukemia,> 100 µM
same,TGI,HL-60(TB) leukemia,> 100 µM
same,TGI,UO-31 renal,> 100 µM
same,TGI,HOP-62 NSCLC,> 100 µM
same,TGI,CCRF-CEM leukemia,> 100 µM
same,TGI,M14 melanoma,> 100 µM
same,TGI,NCI-H23 lung,> 100 µM
same,TGI,MALME-3M melanoma,> 100 µM
same,TGI,OVCAR-5 ovarian,> 100 µM
same,TGI,UACC-62 melanoma,> 100 µM
same,TGI,RPMI-8226 leukemia,> 100 µM
same,TGI,SN12C renal,> 100 µM
same,TGI,A549 NSCLC,> 100 µM
same,TGI,SF-295 CNS,> 100 µM
